{
  "source": "the kinase profiling compilation of Christmann-Franck et al. (2016)",
  "key": {"EIF2AK3 (human)": {"molecular_target": "EIF2AK3 (human) (UniProt Q9NZJ5)", "assay": "IMAP-FP"}, "EIF2AK2 (human)": {"molecular_target": "EIF2AK2 (human) (UniProt P19525)", "assay": "IMAP-FP"}, "SRPK1 (human)": {"molecular_target": "SRPK1 (human) (UniProt Q96SB4)", "assay": "IMAP-FP"}, "PKN1 (human)": {"molecular_target": "PKN1 (human) (UniProt Q16512)", "sequence (Q16512 whole entry, looked up)": "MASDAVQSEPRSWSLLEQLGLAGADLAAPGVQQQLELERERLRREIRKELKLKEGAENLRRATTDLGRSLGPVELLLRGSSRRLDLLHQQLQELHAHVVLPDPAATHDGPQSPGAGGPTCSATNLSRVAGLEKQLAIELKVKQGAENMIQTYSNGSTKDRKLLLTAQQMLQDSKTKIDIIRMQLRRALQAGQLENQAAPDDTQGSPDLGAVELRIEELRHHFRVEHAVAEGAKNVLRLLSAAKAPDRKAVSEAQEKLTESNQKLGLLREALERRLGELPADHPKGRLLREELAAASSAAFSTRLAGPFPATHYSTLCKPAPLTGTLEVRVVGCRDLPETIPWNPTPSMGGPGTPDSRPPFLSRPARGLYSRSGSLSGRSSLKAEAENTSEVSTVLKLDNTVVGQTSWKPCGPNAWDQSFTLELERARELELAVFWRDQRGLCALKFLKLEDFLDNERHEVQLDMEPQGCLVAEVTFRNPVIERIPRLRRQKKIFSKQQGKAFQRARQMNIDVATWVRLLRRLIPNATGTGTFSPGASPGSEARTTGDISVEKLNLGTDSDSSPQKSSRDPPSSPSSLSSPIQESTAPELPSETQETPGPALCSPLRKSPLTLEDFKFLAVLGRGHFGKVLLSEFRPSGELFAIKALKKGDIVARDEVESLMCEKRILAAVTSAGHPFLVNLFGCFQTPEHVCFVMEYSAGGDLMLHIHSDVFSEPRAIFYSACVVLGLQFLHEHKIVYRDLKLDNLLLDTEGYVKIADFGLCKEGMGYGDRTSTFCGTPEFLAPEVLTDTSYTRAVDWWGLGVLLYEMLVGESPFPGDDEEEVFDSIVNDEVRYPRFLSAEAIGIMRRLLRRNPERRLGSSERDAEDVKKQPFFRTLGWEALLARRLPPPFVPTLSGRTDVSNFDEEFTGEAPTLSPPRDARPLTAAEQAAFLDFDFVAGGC", "assay": "IMAP-FP"}, "PLK2 (human)": {"molecular_target": "PLK2 (human) (UniProt Q9NYY3)", "assay": "IMAP-FP"}, "RPS6KA5 KD1 KD2 (human)": {"molecular_target": "RPS6KA5 KD1 KD2 (human) (UniProt O75582)", "assay": "Caliper, Mobility shift assay off-chip"}, "CDK6 (human)": {"molecular_target": "CDK6 (human) (UniProt Q00534)", "sequence (Q00534 whole entry, looked up)": "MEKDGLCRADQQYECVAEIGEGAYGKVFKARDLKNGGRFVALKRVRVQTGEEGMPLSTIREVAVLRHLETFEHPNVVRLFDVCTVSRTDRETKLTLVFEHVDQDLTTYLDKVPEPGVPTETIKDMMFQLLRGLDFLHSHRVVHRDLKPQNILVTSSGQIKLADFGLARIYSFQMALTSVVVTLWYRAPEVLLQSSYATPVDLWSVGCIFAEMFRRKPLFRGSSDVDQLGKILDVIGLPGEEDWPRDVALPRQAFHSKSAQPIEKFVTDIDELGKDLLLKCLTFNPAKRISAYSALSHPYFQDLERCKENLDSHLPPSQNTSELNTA", "assay": "Caliper, Mobility shift assay off-chip"}, "AURKA (human)": {"molecular_target": "AURKA (human) (UniProt O14965)", "assay": "Caliper, Mobility shift assay off-chip"}, "FLT1 (human)": {"molecular_target": "FLT1 (human) (UniProt P17948)", "assay": "Caliper, Mobility shift assay off-chip"}, "NEK9 (human)": {"molecular_target": "NEK9 (human) (UniProt Q8TD19)", "assay": "Caliper, Mobility shift assay off-chip"}, "SGK2 (human)": {"molecular_target": "SGK2 (human) (UniProt Q9HBY8)", "assay": "Caliper, Mobility shift assay off-chip"}, "BRSK1 (human)": {"molecular_target": "BRSK1 (human) (UniProt Q8TDC3)", "sequence (Q8TDC3 whole entry, looked up)": "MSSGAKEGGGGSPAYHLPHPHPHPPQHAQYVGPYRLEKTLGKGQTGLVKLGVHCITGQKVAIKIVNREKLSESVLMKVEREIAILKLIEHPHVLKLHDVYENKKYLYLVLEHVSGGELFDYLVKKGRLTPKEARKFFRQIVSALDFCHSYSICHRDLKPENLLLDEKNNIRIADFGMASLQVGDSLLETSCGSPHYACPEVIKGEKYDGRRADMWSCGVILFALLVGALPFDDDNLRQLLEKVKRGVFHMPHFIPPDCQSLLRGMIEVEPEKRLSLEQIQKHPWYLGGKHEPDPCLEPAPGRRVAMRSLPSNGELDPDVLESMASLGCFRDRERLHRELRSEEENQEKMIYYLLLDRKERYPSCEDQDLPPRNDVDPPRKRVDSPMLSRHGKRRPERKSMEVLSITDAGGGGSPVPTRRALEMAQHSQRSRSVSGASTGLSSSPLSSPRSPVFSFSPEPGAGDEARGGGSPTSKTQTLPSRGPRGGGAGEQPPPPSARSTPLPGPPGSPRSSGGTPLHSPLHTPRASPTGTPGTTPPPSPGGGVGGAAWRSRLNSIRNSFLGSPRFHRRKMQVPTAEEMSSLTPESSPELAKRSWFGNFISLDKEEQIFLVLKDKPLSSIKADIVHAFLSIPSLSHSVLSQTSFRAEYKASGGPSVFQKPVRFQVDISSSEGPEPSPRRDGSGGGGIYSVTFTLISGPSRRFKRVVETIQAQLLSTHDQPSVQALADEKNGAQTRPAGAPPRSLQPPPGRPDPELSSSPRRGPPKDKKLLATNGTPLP", "assay": "Caliper, Mobility shift assay off-chip"}, "AURKB (human)": {"molecular_target": "AURKB (human) (UniProt Q96GD4)", "sequence (Q96GD4 whole entry, looked up)": "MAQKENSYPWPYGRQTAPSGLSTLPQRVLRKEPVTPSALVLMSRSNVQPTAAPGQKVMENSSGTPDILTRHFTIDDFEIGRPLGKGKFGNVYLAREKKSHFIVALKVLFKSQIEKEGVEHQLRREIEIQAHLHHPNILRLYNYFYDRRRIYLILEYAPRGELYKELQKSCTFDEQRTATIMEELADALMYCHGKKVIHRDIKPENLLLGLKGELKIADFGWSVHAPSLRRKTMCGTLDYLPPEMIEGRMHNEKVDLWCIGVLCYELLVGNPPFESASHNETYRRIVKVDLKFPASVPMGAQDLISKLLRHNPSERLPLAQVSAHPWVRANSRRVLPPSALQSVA", "assay": "Caliper, Mobility shift assay off-chip"}, "PRKCD (human)": {"molecular_target": "PRKCD (human) (UniProt Q05655)", "assay": "Caliper, Mobility shift assay off-chip"}, "TXK (human)": {"molecular_target": "TXK (human) (UniProt P42681)", "assay": "Caliper, Mobility shift assay off-chip"}, "EPHA3 (human)": {"molecular_target": "EPHA3 (human) (UniProt P29320)", "assay": "Caliper, Mobility shift assay off-chip"}, "MET (human)": {"molecular_target": "MET (human) (UniProt P08581)", "assay": "Caliper, Mobility shift assay off-chip", "details": "compound 0.001 µM"}, "GSK3A (human)": {"molecular_target": "GSK3A (human) (UniProt P49840)", "assay": "Caliper, Mobility shift assay off-chip"}, "ROS1 (human)": {"molecular_target": "ROS1 (human) (UniProt P08922)", "assay": "Caliper, Mobility shift assay off-chip"}, "STK3 (human)": {"molecular_target": "STK3 (human) (UniProt Q13188)", "sequence (Q13188 whole entry, looked up)": "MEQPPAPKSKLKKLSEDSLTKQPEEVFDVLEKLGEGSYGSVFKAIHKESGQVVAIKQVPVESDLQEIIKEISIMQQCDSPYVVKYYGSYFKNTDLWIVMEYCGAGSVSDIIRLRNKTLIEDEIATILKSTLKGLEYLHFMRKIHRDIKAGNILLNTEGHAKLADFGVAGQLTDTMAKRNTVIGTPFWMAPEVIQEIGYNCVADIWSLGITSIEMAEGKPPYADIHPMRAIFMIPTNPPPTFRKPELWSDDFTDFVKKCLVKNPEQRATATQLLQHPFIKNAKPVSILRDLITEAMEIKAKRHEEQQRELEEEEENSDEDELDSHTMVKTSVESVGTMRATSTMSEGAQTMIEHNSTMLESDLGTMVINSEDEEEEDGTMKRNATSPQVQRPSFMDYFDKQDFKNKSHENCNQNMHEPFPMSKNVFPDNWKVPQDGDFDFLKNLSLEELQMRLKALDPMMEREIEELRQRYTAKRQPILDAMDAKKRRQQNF", "assay": "Caliper, Mobility shift assay off-chip"}, "PIM3 (human)": {"molecular_target": "PIM3 (human) (UniProt Q86V86)", "assay": "Caliper, Mobility shift assay off-chip"}, "MST4 (human)": {"molecular_target": "MST4 (human) (UniProt Q9P289)", "assay": "Caliper, Mobility shift assay off-chip"}, "FLT3 (human)": {"molecular_target": "FLT3 (human) (UniProt P36888)", "assay": "Caliper, Mobility shift assay off-chip", "details": "compound 0.02 µM"}, "ITK (human)": {"molecular_target": "ITK (human) (UniProt Q08881)", "sequence (Q08881 whole entry, looked up)": "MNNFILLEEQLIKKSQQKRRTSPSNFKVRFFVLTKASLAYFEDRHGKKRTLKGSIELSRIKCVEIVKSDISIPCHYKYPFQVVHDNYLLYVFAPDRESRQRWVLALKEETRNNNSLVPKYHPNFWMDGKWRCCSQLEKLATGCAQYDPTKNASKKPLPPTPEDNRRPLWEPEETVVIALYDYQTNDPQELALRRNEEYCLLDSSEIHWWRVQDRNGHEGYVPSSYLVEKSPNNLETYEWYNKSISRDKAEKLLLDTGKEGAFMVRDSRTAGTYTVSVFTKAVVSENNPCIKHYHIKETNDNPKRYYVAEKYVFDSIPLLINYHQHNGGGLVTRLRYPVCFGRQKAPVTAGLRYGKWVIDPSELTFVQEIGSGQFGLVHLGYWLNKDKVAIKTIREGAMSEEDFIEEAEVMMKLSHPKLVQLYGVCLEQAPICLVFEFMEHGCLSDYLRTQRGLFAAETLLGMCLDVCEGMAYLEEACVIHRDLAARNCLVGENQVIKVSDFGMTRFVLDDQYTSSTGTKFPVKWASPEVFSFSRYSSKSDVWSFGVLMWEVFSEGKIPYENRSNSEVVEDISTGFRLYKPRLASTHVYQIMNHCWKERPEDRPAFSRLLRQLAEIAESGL", "assay": "Caliper, Mobility shift assay off-chip"}, "AKT3 (human)": {"molecular_target": "AKT3 (human) (UniProt Q9Y243)", "assay": "Caliper, Mobility shift assay off-chip"}, "JAK1 JH1 JH2 (human)": {"molecular_target": "JAK1 JH1 JH2 (human) (UniProt P23458)", "assay": "Caliper, Mobility shift assay off-chip"}, "JAK3 JH1 JH2 (human)": {"molecular_target": "JAK3 JH1 JH2 (human) (UniProt P52333)", "assay": "Caliper, Mobility shift assay off-chip", "details": "compound 0.001 µM"}, "TYK2 JH1 JH2 (human)": {"molecular_target": "TYK2 JH1 JH2 (human) (UniProt P29597)", "assay": "Caliper, Mobility shift assay off-chip"}, "DDR2 (human)": {"molecular_target": "DDR2 (human) (UniProt Q16832)", "assay": "Caliper, Mobility shift assay off-chip"}, "TYRO3 (human)": {"molecular_target": "TYRO3 (human) (UniProt Q06418)", "assay": "Caliper, Mobility shift assay off-chip"}, "INSR (human)": {"molecular_target": "INSR (human) (UniProt P06213)", "assay": "Caliper, Mobility shift assay off-chip"}, "ROCK2 (human)": {"molecular_target": "ROCK2 (human) (UniProt O75116)", "sequence (O75116 whole entry, looked up)": "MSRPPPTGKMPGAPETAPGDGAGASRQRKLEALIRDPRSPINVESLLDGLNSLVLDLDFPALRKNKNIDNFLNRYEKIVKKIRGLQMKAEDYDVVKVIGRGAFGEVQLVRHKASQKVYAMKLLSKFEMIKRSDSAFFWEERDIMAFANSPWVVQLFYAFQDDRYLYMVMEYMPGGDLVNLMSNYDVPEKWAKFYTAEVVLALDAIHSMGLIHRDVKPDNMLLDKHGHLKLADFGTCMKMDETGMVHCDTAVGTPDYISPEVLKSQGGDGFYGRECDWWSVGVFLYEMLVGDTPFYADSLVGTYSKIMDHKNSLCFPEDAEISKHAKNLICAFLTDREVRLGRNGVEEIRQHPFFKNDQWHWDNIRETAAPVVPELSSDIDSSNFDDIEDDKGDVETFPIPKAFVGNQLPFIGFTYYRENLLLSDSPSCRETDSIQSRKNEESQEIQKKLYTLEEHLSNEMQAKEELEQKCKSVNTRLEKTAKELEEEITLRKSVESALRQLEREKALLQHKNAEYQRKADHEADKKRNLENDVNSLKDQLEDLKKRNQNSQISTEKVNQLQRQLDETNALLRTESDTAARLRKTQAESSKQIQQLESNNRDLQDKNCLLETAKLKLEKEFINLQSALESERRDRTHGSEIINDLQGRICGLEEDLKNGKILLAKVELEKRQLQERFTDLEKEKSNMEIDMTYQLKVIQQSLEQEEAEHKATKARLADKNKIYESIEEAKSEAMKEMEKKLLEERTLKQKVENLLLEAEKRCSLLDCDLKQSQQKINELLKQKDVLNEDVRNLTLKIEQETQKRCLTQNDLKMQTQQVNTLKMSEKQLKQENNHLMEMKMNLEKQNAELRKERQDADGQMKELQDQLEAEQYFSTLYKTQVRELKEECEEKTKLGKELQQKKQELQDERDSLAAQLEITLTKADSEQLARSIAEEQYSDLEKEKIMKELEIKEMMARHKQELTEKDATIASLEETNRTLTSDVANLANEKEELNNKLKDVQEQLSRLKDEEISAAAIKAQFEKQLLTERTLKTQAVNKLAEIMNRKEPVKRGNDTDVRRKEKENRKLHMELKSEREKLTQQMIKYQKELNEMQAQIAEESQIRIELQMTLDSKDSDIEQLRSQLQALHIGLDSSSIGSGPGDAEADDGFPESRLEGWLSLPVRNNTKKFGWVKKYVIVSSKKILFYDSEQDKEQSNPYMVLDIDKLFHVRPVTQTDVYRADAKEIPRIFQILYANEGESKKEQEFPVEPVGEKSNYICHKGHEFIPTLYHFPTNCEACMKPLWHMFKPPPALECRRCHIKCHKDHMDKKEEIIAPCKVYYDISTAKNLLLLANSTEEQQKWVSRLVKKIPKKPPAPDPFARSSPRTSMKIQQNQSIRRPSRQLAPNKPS", "assay": "Caliper, Mobility shift assay off-chip"}, "HCK (human)": {"molecular_target": "HCK (human) (UniProt P08631)", "assay": "Caliper, Mobility shift assay off-chip", "details": "compound 0.02 µM"}, "PAK3 (human)": {"molecular_target": "PAK3 (human) (UniProt O75914)", "assay": "Caliper, Mobility shift assay off-chip"}},
  "data": [
    {"smiles": "CNC(=O)c1ccccc1Sc1ccc2c(/C=C/c3ccccn3)n[nH]c2c1", "values": [
      {"measurement": "inhibition", "setting": "EIF2AK3 (human); compound 0.001 µM", "result": -16.9, "unit": "%"},
      {"measurement": "inhibition", "setting": "EIF2AK3 (human); compound 0.02 µM", "result": -10.8, "unit": "%"},
      {"measurement": "inhibition", "setting": "EIF2AK2 (human); compound 0.001 µM", "result": -26.3, "unit": "%"},
      {"measurement": "inhibition", "setting": "EIF2AK2 (human); compound 0.02 µM", "result": -20.8, "unit": "%"},
      {"measurement": "inhibition", "setting": "SRPK1 (human); compound 0.001 µM", "result": -6.9, "unit": "%"},
      {"measurement": "inhibition", "setting": "SRPK1 (human); compound 0.02 µM", "result": -5.3, "unit": "%"},
      {"measurement": "inhibition", "setting": "PKN1 (human); compound 0.001 µM", "result": -26.9, "unit": "%"},
      {"measurement": "inhibition", "setting": "PKN1 (human); compound 0.02 µM", "result": -21.6, "unit": "%"},
      {"measurement": "inhibition", "setting": "PLK2 (human); compound 0.001 µM", "result": -3, "unit": "%"},
      {"measurement": "inhibition", "setting": "PLK2 (human); compound 0.02 µM", "result": 1.7, "unit": "%"},
      {"measurement": "inhibition", "setting": "RPS6KA5 KD1 KD2 (human); compound 0.001 µM", "result": -6.2, "unit": "%"},
      {"measurement": "inhibition", "setting": "RPS6KA5 KD1 KD2 (human); compound 0.02 µM", "result": -7.1, "unit": "%"},
      {"measurement": "inhibition", "setting": "CDK6 (human); compound 0.001 µM", "result": 3.5, "unit": "%"},
      {"measurement": "inhibition", "setting": "CDK6 (human); compound 0.02 µM", "result": 4.4, "unit": "%"},
      {"measurement": "inhibition", "setting": "AURKA (human); compound 0.001 µM", "result": 13.3, "unit": "%"},
      {"measurement": "inhibition", "setting": "AURKA (human); compound 0.02 µM", "result": 54.5, "unit": "%"},
      {"measurement": "inhibition", "setting": "FLT1 (human); compound 0.001 µM", "result": 25.3, "unit": "%"},
      {"measurement": "inhibition", "setting": "FLT1 (human); compound 0.02 µM", "result": 99.3, "unit": "%"},
      {"measurement": "inhibition", "setting": "NEK9 (human); compound 0.001 µM", "result": -5.6, "unit": "%"},
      {"measurement": "inhibition", "setting": "NEK9 (human); compound 0.02 µM", "result": -3.7, "unit": "%"},
      {"measurement": "inhibition", "setting": "SGK2 (human); compound 0.001 µM", "result": -1.7, "unit": "%"},
      {"measurement": "inhibition", "setting": "SGK2 (human); compound 0.02 µM", "result": 4.4, "unit": "%"},
      {"measurement": "inhibition", "setting": "BRSK1 (human); compound 0.001 µM", "result": -2.4, "unit": "%"},
      {"measurement": "inhibition", "setting": "BRSK1 (human); compound 0.02 µM", "result": 20.1, "unit": "%"},
      {"measurement": "inhibition", "setting": "AURKB (human); compound 0.001 µM", "result": 5.9, "unit": "%"},
      {"measurement": "inhibition", "setting": "AURKB (human); compound 0.02 µM", "result": 48.4, "unit": "%"},
      {"measurement": "inhibition", "setting": "PRKCD (human); compound 0.001 µM", "result": 15.6, "unit": "%"},
      {"measurement": "inhibition", "setting": "PRKCD (human); compound 0.02 µM", "result": -0.9, "unit": "%"},
      {"measurement": "inhibition", "setting": "TXK (human); compound 0.001 µM", "result": -4, "unit": "%"},
      {"measurement": "inhibition", "setting": "TXK (human); compound 0.02 µM", "result": -3.9, "unit": "%"},
      {"measurement": "inhibition", "setting": "EPHA3 (human); compound 0.001 µM", "result": -7.7, "unit": "%"},
      {"measurement": "inhibition", "setting": "EPHA3 (human); compound 0.02 µM", "result": -4.2, "unit": "%"},
      {"measurement": "inhibition", "setting": "MET (human)", "result": -2.4, "unit": "%"},
      {"measurement": "inhibition", "setting": "GSK3A (human); compound 0.001 µM", "result": 2.4, "unit": "%"},
      {"measurement": "inhibition", "setting": "GSK3A (human); compound 0.02 µM", "result": 0.2, "unit": "%"},
      {"measurement": "inhibition", "setting": "ROS1 (human); compound 0.001 µM", "result": -0.6, "unit": "%"},
      {"measurement": "inhibition", "setting": "ROS1 (human); compound 0.02 µM", "result": 10.8, "unit": "%"},
      {"measurement": "inhibition", "setting": "STK3 (human); compound 0.001 µM", "result": -3.8, "unit": "%"},
      {"measurement": "inhibition", "setting": "STK3 (human); compound 0.02 µM", "result": -2.3, "unit": "%"},
      {"measurement": "inhibition", "setting": "PIM3 (human); compound 0.001 µM", "result": -7.7, "unit": "%"},
      {"measurement": "inhibition", "setting": "PIM3 (human); compound 0.02 µM", "result": -5.9, "unit": "%"},
      {"measurement": "inhibition", "setting": "MST4 (human); compound 0.001 µM", "result": -4.6, "unit": "%"},
      {"measurement": "inhibition", "setting": "MST4 (human); compound 0.02 µM", "result": -8, "unit": "%"},
      {"measurement": "inhibition", "setting": "FLT3 (human)", "result": 14.8, "unit": "%"},
      {"measurement": "inhibition", "setting": "ITK (human); compound 0.001 µM", "result": 2.8, "unit": "%"},
      {"measurement": "inhibition", "setting": "ITK (human); compound 0.02 µM", "result": 1.9, "unit": "%"},
      {"measurement": "inhibition", "setting": "AKT3 (human); compound 0.001 µM", "result": -5.4, "unit": "%"},
      {"measurement": "inhibition", "setting": "AKT3 (human); compound 0.02 µM", "result": -5.5, "unit": "%"},
      {"measurement": "inhibition", "setting": "JAK1 JH1 JH2 (human); compound 0.001 µM", "result": -7.4, "unit": "%"},
      {"measurement": "inhibition", "setting": "JAK1 JH1 JH2 (human); compound 0.02 µM", "result": -3.3, "unit": "%"},
      {"measurement": "inhibition", "setting": "JAK3 JH1 JH2 (human)", "result": 4.6, "unit": "%"},
      {"measurement": "inhibition", "setting": "TYK2 JH1 JH2 (human); compound 0.001 µM", "result": 3.7, "unit": "%"},
      {"measurement": "inhibition", "setting": "TYK2 JH1 JH2 (human); compound 0.02 µM", "result": 1.6, "unit": "%"},
      {"measurement": "inhibition", "setting": "DDR2 (human); compound 0.001 µM", "result": -1.6, "unit": "%"},
      {"measurement": "inhibition", "setting": "DDR2 (human); compound 0.02 µM", "result": 2.2, "unit": "%"},
      {"measurement": "inhibition", "setting": "TYRO3 (human); compound 0.001 µM", "result": -1.2, "unit": "%"},
      {"measurement": "inhibition", "setting": "TYRO3 (human); compound 0.02 µM", "result": -2, "unit": "%"},
      {"measurement": "inhibition", "setting": "INSR (human); compound 0.001 µM", "result": -0.3, "unit": "%"},
      {"measurement": "inhibition", "setting": "INSR (human); compound 0.02 µM", "result": -8.6, "unit": "%"},
      {"measurement": "inhibition", "setting": "ROCK2 (human); compound 0.001 µM", "result": 1.6, "unit": "%"},
      {"measurement": "inhibition", "setting": "ROCK2 (human); compound 0.02 µM", "result": -4.7, "unit": "%"},
      {"measurement": "inhibition", "setting": "HCK (human)", "result": -7.8, "unit": "%"},
      {"measurement": "inhibition", "setting": "PAK3 (human); compound 0.001 µM", "result": -1.3, "unit": "%"},
      {"measurement": "inhibition", "setting": "PAK3 (human); compound 0.02 µM", "result": 7.8, "unit": "%"}
    ]}
  ]
}
